According to patent publication US4248879A, “Benzopyranotriazoles” (Beecham Group Limited, priority 1978, dated 1981):

Assays:
rat PCA = test: Passive Cutaneous Anaphylaxis (PCA) in rats; assay type: in vivo, Male Wistar rats; conditions: S.C.
Protocol: Serum containing heat-labile homocytotropic antibody was raised in rats to crystallized ovalbumin XOA by the method of Mota (I. Mota, Immunology, 7, 681, (1964)) using Bordettela pertussis vaccine as adjuvant.
Passive cutaneous anaphylaxis (PCA) was carried out by a method based on that of Ovary and Bier, (A. Ovary and O. G. Bier, Proc. Soc. Exp. Bio. Med 81, 584, (1952)) as modified by Goose and Blair. (Immunology 16, 749 (1969)).
Male Wistar rats of 250-300 g were give 0.1 ml of each of six twofold serial dilutions of pooled antiserum in 0.9% saline injected intradermally into separate sites in their shaved backs. Later (72 hours) the animals were challenged by intravenous injection of 0.3 ml of a 1% solution of ovalbumin in an isotonic solution of saline buffered with 0.05 M, pH 7.2, Sorenson Buffer (PBS), mixed with 0.2 ml of a 5% solution of Pontamine Sky Blue (6BX C.I. 24410, Raymond A. Lamb, London) in isotonic saline. The rats were killed after 20 minutes and the diameter of the blue wheals at the antibody injection sites was measured on the outer surface of the skin. The starting dilution of the serum was adjusted so that there was no response, after challenge, at the injection site of the highest dilution and a maximum response at the lowest dilutions. Typically six twofold serial dilutions of the serum from 1/4 to 1/128 were used.
Compounds were tested for their ability to reduce the diameter of the wheals at those intradermal sites which in control animals gave less than maximum response. Each dose of the compound was administered to six rats at a measured time prior to intravenous challenge with ovalbumin. Control groups of six rats were given the same volume (0.2 ml: 100 g^-1) of carrier fluid at the same time prior to the challenge.
The results were calculated as follows: % inhibition of PCA=100 (1-a/b) where a=the sum of the diameters of the wheals produced in the test animal at the sites of antibody dilutions as used in control groups and b=the mean sum of the diameters of the wheals produced in the control group of animals at those antibody sites where at least five out of six of the animals gave less than maximum response. A typical variation in the control group of animals was SEM±6%.

LD50 (toxicity) in mice = conditions: mouse, in vivo
Protocol: The LD50 of the compound of Example 6 (d) is between 20 to 80 mg/kg i.v. and between 125 to 500 mg/kg per os, in mice.

[1] = PBS with NaHCO3, 10 mins before antigen challenge, 20 mg/kg
[2] = PBS with NaHCO3, 30 mins before antigen challenge, 20 mg/kg
[3] = PBS with NaHCO3, 10 mins before antigen challenge, 10 mg/kg
[4] = PBS with NaHCO3, 30 mins before antigen challenge, 10 mg/kg
[5] = PBS with NaHCO3, 10 mins before antigen challenge, 5 mg/kg
[6] = PBS with NaHCO3, 30 mins before antigen challenge, 5 mg/kg

COc1ccc2oc3nn[nH]c3c(=O)c2c1 [Example 4, 7-Methoxy-9-oxo-1H,9H-benzopyrano[2,3-d]-v-triazole]
% Inhibitions of rat PCA (rat PCA; [1]): 66% | % Inhibitions of rat PCA (rat PCA; [2]): 35%

Cc1ccc2oc3nn[nH]c3c(=O)c2c1 [Example 3, 7-Methyl-9-oxo-1H,9H-benzopyrano[2,3]-v-triazole]
% Inhibitions of rat PCA (rat PCA; [3]): 78% | % Inhibitions of rat PCA (rat PCA; [4]): 41%

Cc1cc2oc3nn[nH]c3c(=O)c2cc1C [Example 6d]
% Inhibitions of rat PCA (rat PCA; [5]): 72% | % Inhibitions of rat PCA (rat PCA; [6]): 22% | LD50 (LD50 (toxicity) in mice; iv): 20 to 80 mg/kg | LD50 (LD50 (toxicity) in mice; po, per os): 125 to 500 mg/kg

Cc1ccc2oc3nn[nH]c3c(=O)c2c1C [Example 6e, 7,8-dimethyl-1H,9H-benzopyrano[2,3-d]-v-triazole]
% Inhibitions of rat PCA (rat PCA; [5]): 86% | % Inhibitions of rat PCA (rat PCA; [6]): 45%

Cc1ccc2c(=O)c3[nH]nnc3oc2c1C [Example 5, 5,6-Dimethyl-9-oxo-1H,9H-benzopyrano[2,3-d]-v-triazole]
% Inhibitions of rat PCA (rat PCA; [1]): 64% | % Inhibitions of rat PCA (rat PCA; [2]): 14%

Cc1cc(C)c2c(=O)c3[nH]nnc3oc2c1C [Example 7, 9-oxo-5,6,8-Trimethyl-1H,9H-benzopyrano[2,3-d]-v-triazole]
% Inhibitions of rat PCA (rat PCA; [3]): 40% | % Inhibitions of rat PCA (rat PCA; [4]): 18%

O=c1c2ccccc2oc2nn[nH]c12 [Example 1, 9-Oxo-1H,9H-benzopyrano[2,3-d]-v-triazole]
% Inhibitions of rat PCA (rat PCA; [3]): 83% | % Inhibitions of rat PCA (rat PCA; [4]): 29%
